In patent US11744840B2, “N-palmitoyl-D-glucosamine in a micronized form” (Innovet Italia S.R.L., priority 2018, dated 2023):

Columns and labels:
[1] = tested on: carrageenan edema in the rat's paw; test: carrageenan edema in the rat's paw, physical forms of PGA and Curcumin; type: in vivo; conditions: for edema as a percentage of the edema produced only by carrageenan (value of 100) / pharmacological effect on carrageenan edema (in words): rat; for edema as a percentage of the edema produced only by carrageenan (value of 100): PGA 30, PGA-m 20, CUR-m 10, PGACUR-m 30, PGA-sm 20 mg/kg; for pharmacological effect on carrageenan edema (in words): PGA 30, PGA-m 20, PGA-sm 20, CUR 10, PGACUR-m 30 mg/kg
Procedure: The experimental model of carrageenan edema was used in the rat's paw, which determines epithelial dysfunction at the paw level.
The experimental model of carrageenan edema in the paw was induced by sub-plantar injection of a carrageenan solution (containing 50 μl of sterile saline containing 1% carrageenan) into the right paw of the animal (rat).
At specific time intervals the plantar volume was measured by a plethysmometer (Ugo Basile, Milan, Italy). The increase in plantar volume was evaluated as the difference between the value obtained in the specific time intervals and the volume at baseline (time 0) measured immediately before the administration of carrageenan.
The following physical forms of N-palmitoyl-D-glucosamine were tested: • Non-micronized N-palmitoyl-D-glucosamine (PGA); • Micronized N-palmitoyl-D-glucosamine (PGA-m); • N-palmitoyl-D-glucosamine co-micronized with Curcumin (PGACUR-m); • N-palmitoyl-D-glucosamine in a sub-micron form (PGA-sm).
The following physical form of Curcumin was also tested: • Micronized Curcumin (CUR-m)
In all cases PGA was tested as a PGA/fatty acid mixture.
The thus obtained results, expressed as a percentage of the edema produced only by carrageenan (indicated with a value of 100), are as follows: […]

[2] = tested on: carrageenan edema in the rat's paw; test: carrageenan edema in the rat's paw, PGA with or without Polydatin; type: in vivo; conditions: Wistar rat, doses per group b126-b129, unit assumed
Procedure: Also in this case, the experimental model of carrageenan edema in the rat's paw was used, which determines epithelial dysfunction at the paw level.
The edema was induced by the sub-plantar injection of 50 μl of an aqueous 1% carrageenan solution. At time intervals (30 min, 1 h, 2 h, 3 h, 4 h, 5 h, 6 h) the volume of the injected paw was evaluated by means of a plethysmometer (Ugo Basile, Milan—Italy). The following physical forms of N-palmitoyl-D-glucosamine with or without Polydatin were tested in groups of 10 animals (Wistar strain weighing between 130 and 160 g) for each group, in the dosages indicated in brackets:
Group B) Carrageenan+micronized Palmitoylglucosamine (10 mg/kg)
Group C) Carrageenan+micronized Polydatin (1 mg/kg)
Group D) Carrageenan+Palmitoylglucosamine (10 mg/kg)+Polydatin (1 mg/kg) [mixed]
Group E) Carrageenan+Palmitoylglucosamine and co-micronized Polydatin [10:1] (11 mg/kg)

For CCCCCCCCCCCCCCCC(=O)N[C@H]1C(O)O[C@H](CO)[C@@H](O)[C@@H]1O (stereo partly drawn) [PGA, N-palmitoyl-D-glucosamine], the melting point was 202 °C (dec.), the “edema as a percentage of the edema produced only by carrageenan (value of 100)” value (“edema as a percentage” for short) ([1]; 30 min) was 100.0% and the “edema as a percentage” value ([1]; 1 hr) was 100.0%. For the same molecule, the “edema as a percentage” value ([1]; 2 hr) was 100.0%, the “edema as a percentage” value ([1]; 3 hr) was 100.0% and the “edema as a percentage” value ([1]; 4 hr) was 100.0%. For the same molecule, the “edema as a percentage” value ([1]; 5 hr) was 100.0%, the “pharmacological effect on carrageenan edema (in words)” value (from here on “pharmacological effect”) ([1]; listed as PGA (non-micronized)) was “no pharmacological effect” and the “pharmacological effect” value ([1]; listed as non-micronized PGA) was “total inactivity”.
For COc1cc(/C=C/C(=O)CC(=O)/C=C/c2ccc(O)c(OC)c2)ccc1O [CUR-m, Curcumin, reference compound], the “edema as a percentage” value ([1]; 30 min) was 100.3%, the “edema as a percentage” value ([1]; 1 hr) was 95.4% and the “edema as a percentage” value ([1]; 2 hr) was 95.1%. The “edema as a percentage” value ([1]; 3 hr) was 94.8%, the “edema as a percentage” value ([1]; 4 hr) was 96.2% and the “edema as a percentage” value ([1]; 5 hr) was 97.4%. For the same molecule, the “pharmacological effect” value ([1]; listed as micronized CUR) was “no significant pharmacological effect” and the “pharmacological effect” value ([1]; listed as micronized Curcumin) was “almost total inactivity”.
Molecule OC[C@H]1O[C@@H](Oc2cc(O)cc(/C=C/c3ccc(O)cc3)c2)[C@H](O)[C@@H](O)[C@@H]1O [Group C), Polydatin, reference compound] has a Paw volume ([2]; 30 min from treatment) of 0.21 mL, a Paw volume ([2]; 1 h from treatment) of 0.32 mL and a Paw volume ([2]; 2 h from treatment) of 0.69 mL. The Paw volume ([2]; 3 h from treatment) was 1.03 mL, the Paw volume ([2]; 4 h from treatment) was 1.19 mL and the Paw volume ([2]; 5 h from treatment) was 1.28 mL. The Paw volume ([2]; 6 h from treatment) was 0.95 mL.
For CCCCCCCCCCCCCCCC(=O)N[C@H]1C(O)O[C@H](CO)[C@@H](O)[C@@H]1O (stereo partly drawn) [PGA-sm, N-palmitoyl-D-glucosamine], the “edema as a percentage” value ([1]; 30 min) was 100.0%, the “edema as a percentage” value ([1]; 1 hr) was 100.0% and the “edema as a percentage” value ([1]; 2 hr) was 98.0%. For the same molecule, the “edema as a percentage” value ([1]; 3 hr) was 97.0%, the “edema as a percentage” value ([1]; 4 hr) was 98.0% and the “edema as a percentage” value ([1]; 5 hr) was 98.0%. For the same molecule, the “pharmacological effect” value [1] was “no significant pharmacological effect”, the “pharmacological effect” value ([1]; listed as sub-micron PGA) was “markedly pejorative activity compared to the micronized PGA” and the “pharmacological effect” value ([1]; listed as sub-micronized PGA) was “almost total inactivity”.
Work on CCCCCCCCCCCCCCCC(=O)N[C@H]1C(O)O[C@H](CO)[C@@H](O)[C@@H]1O (stereo partly drawn) [PGA-m, N-palmitoyl-D-glucosamine] yielded a Paw volume ([2]; 30 min from treatment) of 0.23 mL, a Paw volume ([2]; 1 h from treatment) of 0.33 mL and a Paw volume ([2]; 2 h from treatment) of 0.81 mL. The Paw volume ([2]; 3 h from treatment) was 1 mL, the Paw volume ([2]; 4 h from treatment) was 1.21 mL and the Paw volume ([2]; 5 h from treatment) was 1.33 mL. The Paw volume ([2]; 6 h from treatment) was 1.05 mL, the “edema as a percentage” value ([1]; 30 min) was 100.0% and the “edema as a percentage” value ([1]; 1 hr) was 92.2%. For the same molecule, the “edema as a percentage” value ([1]; 2 hr) was 80.1%, the “edema as a percentage” value ([1]; 3 hr) was 71.5% and the “edema as a percentage” value ([1]; 4 hr) was 70.4%. For the same molecule, the “edema as a percentage” value ([1]; 5 hr) was 75.5%, the “reduction of the Carrageenan edema” value ([1]; PGA-m 20 mg/Kg, co-micronized PGA-m 20 mg/Kg + CUR 10 mg/kg, corresponds to the 5 hr values of Table 1) was 24.5% and the “pharmacological effect” value [1] was “apparent pharmacological effect”.
